Source: US20250122160A1, “PROTEIN TYROSINE PHOSPHATASE INHIBITORS AND METHODS OF USE THEREOF” (Calico Life Sciences LLC, priority 0001, published 2025)
pIC50: −log10 of the molar value.

Legend:
[1] = target: T1, His tagged full-length PTPN1 protein (Homo sapiens, UniProt P18031); experiment: Mobility shift assay (MSA) to determine potency of PTPN1 inhibitors; format: biochemical; details: 0.5 nM enzyme, 2 μM substrate
T1 construct: made in house
T1 sequence (P18031 with tags, fused parts or gaps): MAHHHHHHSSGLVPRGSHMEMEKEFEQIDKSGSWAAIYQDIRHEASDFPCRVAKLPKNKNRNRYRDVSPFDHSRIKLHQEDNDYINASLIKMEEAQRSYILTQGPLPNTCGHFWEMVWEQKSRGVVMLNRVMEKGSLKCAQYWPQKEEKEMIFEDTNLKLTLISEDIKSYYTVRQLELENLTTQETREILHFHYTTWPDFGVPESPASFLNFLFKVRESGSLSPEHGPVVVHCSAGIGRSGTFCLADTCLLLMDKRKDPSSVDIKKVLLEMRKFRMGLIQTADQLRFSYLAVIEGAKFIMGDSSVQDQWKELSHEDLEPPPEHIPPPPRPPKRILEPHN
Method in brief: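 His-tagged full-length human PTPN1 (0.5 nM) preincubated with compound 10 min at room temperature in pH 7.5 HEPES buffer with EGTA, EDTA, Tween 20 and DTT. Dephosphorylation of 2 μM fluorescent phospho-insulin-receptor peptide over 10 min measured by mobility shift. IC50 from % inhibition across a 12-point, 1:3 dilution series.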

[2] = target: T2, His tagged PTPN2 (TC45) protein (Homo sapiens, UniProt P17706); experiment: Mobility shift assay (MSA) to determine potency of PTPN2 inhibitors; format: biochemical; details: 0.5 nM enzyme, 2 μM substrate
T2 construct: made in house
T2 sequence (P17706 with tags, fused parts or gaps isoform P17706-2): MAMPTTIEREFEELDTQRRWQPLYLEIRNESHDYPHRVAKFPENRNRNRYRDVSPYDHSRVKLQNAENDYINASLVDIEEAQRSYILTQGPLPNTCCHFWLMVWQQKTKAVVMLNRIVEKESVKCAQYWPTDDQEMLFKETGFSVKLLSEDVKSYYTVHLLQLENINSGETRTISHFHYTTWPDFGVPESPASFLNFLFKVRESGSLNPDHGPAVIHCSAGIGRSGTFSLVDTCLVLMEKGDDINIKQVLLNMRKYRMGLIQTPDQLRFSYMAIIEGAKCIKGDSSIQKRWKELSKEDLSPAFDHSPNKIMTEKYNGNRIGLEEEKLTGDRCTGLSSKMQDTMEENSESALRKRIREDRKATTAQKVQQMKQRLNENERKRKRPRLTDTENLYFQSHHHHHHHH
Method in brief: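 His-tagged human PTPN2 (TC45), 0.5 nM, preincubated 10 min at room temperature with compound (12-point, 1:3 dilutions) in HEPES pH 7.5 buffer with EGTA, EDTA, Tween 20 and DTT. Then 2 μM OG488-labelled phospho-insulin-receptor peptide was added for 10 min and quenched. % conversion was read by mobility shift, and IC50 came from % inhibition.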

Structure (SMILES) | pIC50 [1] | pIC50 [2]
COCCCCN[C@@H]1CCc2cc(O)c(N3CC(=O)NS3(=O)=O)c(F)c2C1 [Compound 360, 5-{(7R)-1-fluoro-3-hydroxy-7-[(4-methoxybutyl)amino]-5,6,7,8-tetrahydronaphthalen-2-yl}-1λ^6,2,5-thiadiazolidine-1,1,3-trione] | 7.00 to 8.00 | 8.00 to 9.00
O=C1CN(c2c(O)cc3c(c2F)C[C@H](NCC2CCOC2)CC3)S(=O)(=O)N1 (stereo partly drawn) [Compound 361, 5-[(7R)-1-fluoro-3-hydroxy-7-{[(oxolan-3-yl)methyl]amino}-5,6,7,8-tetrahydronaphthalen-2-yl]-1λ^6,2,5-thiadiazolidine-1,1,3-trione] | 7.00 to 8.00 | 8.00 to 9.00
O=C1CN(c2c(O)cc3c(c2F)C[C@H](NCC2CC2(F)F)CC3)S(=O)(=O)N1 (stereo partly drawn) [Compound 362, 5-[(7R)-7-{[(2,2-difluorocyclopropyl)methyl]amino}-1-fluoro-3-hydroxy-5,6,7,8-tetrahydronaphthalen-2-yl]-1λ^6,2,5-thiadiazolidine-1,1,3-trione] | 7.00 to 8.00 | 7.00 to 8.00
COCCCN[C@@H]1CCc2cc(O)c(N3CC(=O)NS3(=O)=O)c(F)c2C1 [Compound 363, 5-{(7R)-1-fluoro-3-hydroxy-7-[(3-methoxypropyl)amino]-5,6,7,8-tetrahydronaphthalen-2-yl}-1λ^6,2,5-thiadiazolidine-1,1,3-trione] | 7.00 to 8.00 | 8.00 to 9.00
O=C1CN(c2c(O)cc3c(c2F)C[C@H](NCc2cnco2)CC3)S(=O)(=O)N1 [Compound 364, 5-[(7R)-1-fluoro-3-hydroxy-7-{[(1,3-oxazol-5-yl)methyl]amino}-5,6,7,8-tetrahydronaphthalen-2-yl]-1λ^6,2,5-thiadiazolidine-1,1,3-trione] | 7.00 to 8.00 | 7.00 to 8.00
O=C1CN(c2c(O)cc3c(c2F)C[C@H](NCCC2CCOCC2)CC3)S(=O)(=O)N1 [Compound 365, 5-[(7R)-1-fluoro-3-hydroxy-7-{[2-(oxan-4-yl)ethyl]amino}-5,6,7,8-tetrahydronaphthalen-2-yl]-1λ^6,2,5-thiadiazolidine-1,1,3-trione] | 7.00 to 8.00 | 8.00 to 9.00
O=C1CN(c2c(O)cc3c(c2F)C[C@H](NCC2COC2)CC3)S(=O)(=O)N1 [Compound 366, 5-[(7R)-1-fluoro-3-hydroxy-7-{[(oxetan-3-yl)methyl]amino}-5,6,7,8-tetrahydronaphthalen-2-yl]-1λ^6,2,5-thiadiazolidine-1,1,3-trione] | 7.00 to 8.00 | 7.00 to 8.00
O=C1CN(c2c(O)cc3c(c2F)C[C@H](NCc2nccs2)CC3)S(=O)(=O)N1 [Compound 367, 5-[(7R)-1-fluoro-3-hydroxy-7-{[(1,3-thiazol-2-yl)methyl]amino}-5,6,7,8-tetrahydronaphthalen-2-yl]-1λ^6,2,5-thiadiazolidine-1,1,3-trione] | 7.00 to 8.00 | 7.00 to 8.00
O=C1CN(c2c(O)cc3c(c2F)C[C@H](NCc2ccnnc2)CC3)S(=O)(=O)N1 [Compound 368, 5-[(7R)-1-fluoro-3-hydroxy-7-{[(pyridazin-4-yl)methyl]amino}-5,6,7,8-tetrahydronaphthalen-2-yl]-1λ^6,2,5-thiadiazolidine-1,1,3-trione] | 7.00 to 8.00 | 7.00 to 8.00
CC(O)CCN[C@@H]1CCc2cc(O)c(N3CC(=O)NS3(=O)=O)c(F)c2C1 (stereo partly drawn) [Compound 369, 5-{(7R)-1-fluoro-3-hydroxy-7-[(3-hydroxybutyl)amino]-5,6,7,8-tetrahydronaphthalen-2-yl}-1λ^6,2,5-thiadiazolidine-1,1,3-trione] | 7.00 to 8.00 | 8.00 to 9.00

Second part, led by results:

pIC50 [1] | Structure (SMILES) | pIC50 [2]
7.00 to 8.00 | O=C1CN(c2c(O)cc3c(c2F)C[C@H](NCc2cccnc2)CC3)S(=O)(=O)N1 [Compound 347, 5-[(7R)-1-fluoro-3-hydroxy-7-{[(pyridin-3-yl)methyl]amino}-5,6,7,8-tetrahydronaphthalen-2-yl]-1λ^6,2,5-thiadiazolidine-1,1,3-trione] | 7.00 to 8.00
7.00 to 8.00 | CC(CN[C@@H]1CCc2cc(O)c(N3CC(=O)NS3(=O)=O)c(F)c2C1)C(F)(F)F (stereo partly drawn) [Compound 348, 5-{(7R)-1-fluoro-3-hydroxy-7-[(3,3,3-trifluoro-2-methylpropyl)amino]-5,6,7,8-tetrahydronaphthalen-2-yl}-1λ^6,2,5-thiadiazolidine-1,1,3-trione] | 8.00 to 9.00
7.00 to 8.00 | O=C1CN(c2c(O)cc3c(c2F)C[C@H](NCc2cccnn2)CC3)S(=O)(=O)N1 [Compound 349, 5-[(7R)-1-fluoro-3-hydroxy-7-{[(pyridazin-3-yl)methyl]amino}-5,6,7,8-tetrahydronaphthalen-2-yl]-1λ^6,2,5-thiadiazolidine-1,1,3-trione] | 7.00 to 8.00
7.00 to 8.00 | O=C1CN(c2c(O)cc3c(c2F)C[C@H](NCC2CCCCO2)CC3)S(=O)(=O)N1 (stereo partly drawn) [Compound 350, 5-[(7R)-1-fluoro-3-hydroxy-7-{[(oxan-2-yl)methyl]amino}-5,6,7,8-tetrahydronaphthalen-2-yl]-1λ^6,2,5-thiadiazolidine-1,1,3-trione] | 8.00 to 9.00
7.00 to 8.00 | Cc1cc(CN[C@@H]2CCc3cc(O)c(N4CC(=O)NS4(=O)=O)c(F)c3C2)no1 [Compound 351, 5-[(7R)-1-fluoro-3-hydroxy-7-{[(5-methyl-1,2-oxazol-3-yl)methyl]amino}-5,6,7,8-tetrahydronaphthalen-2-yl]-1λ^6,2,5-thiadiazolidine-1,1,3-trione] | 7.00 to 8.00
8.00 to 9.00 | O=C1CN(c2c(O)cc3c(c2F)C[C@H](NCC2CCCOC2)CC3)S(=O)(=O)N1 (stereo partly drawn) [Compound 352, 5-[(7R)-1-fluoro-3-hydroxy-7-{[(oxan-3-yl)methyl]amino}-5,6,7,8-tetrahydronaphthalen-2-yl]-1λ^6,2,5-thiadiazolidine-1,1,3-trione] | 8.00 to 9.00
7.00 to 8.00 | N#CC1CC1CN[C@@H]1CCc2cc(O)c(N3CC(=O)NS3(=O)=O)c(F)c2C1 (stereo partly drawn) [Compound 353, 2-({[(2R)-8-fluoro-6-hydroxy-7-(1,1,4-trioxo-1λ^6,2,5-thiadiazolidin-2-yl)-1,2,3,4-tetrahydronaphthalen-2-yl]amino}methyl)cyclopropane-1-carbonitrile] | 8.00 to 9.00
7.00 to 8.00 | CCOCCCN[C@@H]1CCc2cc(O)c(N3CC(=O)NS3(=O)=O)c(F)c2C1 [Compound 354, 5-{(7R)-7-[(3-ethoxypropyl)amino]-1-fluoro-3-hydroxy-5,6,7,8-tetrahydronaphthalen-2-yl}-1λ^6,2,5-thiadiazolidine-1,1,3-trione] | 8.00 to 9.00
7.00 to 8.00 | O=C1CN(c2c(O)cc3c(c2F)C[C@H](NCC2(C(F)F)CC2)CC3)S(=O)(=O)N1 [Compound 355, 5-[(7R)-7-({[1-(difluoromethyl)cyclopropyl]methyl}amino)-1-fluoro-3-hydroxy-5,6,7,8-tetrahydronaphthalen-2-yl]-1λ^6,2,5-thiadiazolidine-1,1,3-trione] | 8.00 to 9.00
8.00 to 9.00 | O=C1CN(c2c(O)cc3c(c2F)C[C@H](NCCC2CCOC2)CC3)S(=O)(=O)N1 (stereo partly drawn) [Compound 356, 5-[(7R)-1-fluoro-3-hydroxy-7-{[2-(oxolan-3-yl)ethyl]amino}-5,6,7,8-tetrahydronaphthalen-2-yl]-1λ^6,2,5-thiadiazolidine-1,1,3-trione] | > 9.00
7.00 to 8.00 | Cn1cncc1CN[C@@H]1CCc2cc(O)c(N3CC(=O)NS3(=O)=O)c(F)c2C1 [Compound 357, 5-[(7R)-1-fluoro-3-hydroxy-7-{[(1-methyl-1H-imidazol-5-yl)methyl]amino}-5,6,7,8-tetrahydronaphthalen-2-yl]-1λ^6,2,5-thiadiazolidine-1,1,3-trione] | 7.00 to 8.00
7.00 to 8.00 | CC(C)(CN[C@@H]1CCc2cc(O)c(N3CC(=O)NS3(=O)=O)c(F)c2C1)CN1CCCC1 [Compound 358, 5-[(7R)-7-{[2,2-dimethyl-3-(pyrrolidin-1-yl)propyl]amino}-1-fluoro-3-hydroxy-5,6,7,8-tetrahydronaphthalen-2-yl]-1λ^6,2,5-thiadiazolidine-1,1,3-trione] | 7.00 to 8.00
7.00 to 8.00 | O=C1CN(c2c(O)cc3c(c2F)C[C@H](NCc2ccc(CO)o2)CC3)S(=O)(=O)N1 [Compound 359, 5-[(7R)-1-fluoro-3-hydroxy-7-({[5-(hydroxymethyl)furan-2-yl]methyl}amino)-5,6,7,8-tetrahydronaphthalen-2-yl]-1λ^6,2,5-thiadiazolidine-1,1,3-trione] | 7.00 to 8.00
